Measurements published in patent publication US10174013B2, “Benzimidazole derivatives as kinase inhibitors” (SELVITA S.A., priority 2012, dated 2019).

Assays:
MOLM13 cells = test: Growth inhibition, MTS assay, MOLM13; type: cell-based, Human; details: 72 hours, MTS cell viability; read-out: MOLM 13 ED50
From the text: (§1) The following cell lines, were obtained and used in tests as outlined below: • Human myelomonocytic, biphenotypic leukemia MV4-11 cells (harboring a Flt3-ITD mutation); • Human Acute Myeloid Leukemia MOLM16 cells; • Human Acute Myeloid Leukemia MOLM13 cells (harboring a Flt3-ITD mutation); • Human Myeloid Leukemia KG-1 cells; • Human erythroleukemia HEL92 cells; • Human mantle cell lymphoma Jeko-1 cells; • Human hepatocellular carcinoma HepG2 cells; and • Human colon adenocarcinoma SW-480 cells.
(§2) The assays were carried out according to the following protocol, which is described as an example for the MV4-11 cells:
(§3) Ten thousand MV4-11 cells were inoculated into each well of a 96-well microplate (manufactured by Corning Corp.) using Iscove's MDM medium (culture medium) containing 10% fetal calf serum (FCS). The same day, a dimethyl sulfoxide (DMSO) solution of each test compound prepared in a concentration of 10 mmol/L was further diluted with DMSO to the desired concentrations (0.1, 0.5, 1, 2.5, 5 and 10 micromol/L), and the diluted solution was added to each well. The individual wells were further cultured in 5% carbon dioxide at 37° C. for 72 hours. […] Briefly, 10 μl MTS (3-(4,5-Dimethyl-2-thiazolyl)-5-(carboxymethoxyphenyl)-2-(4-sulfophenyl)-2H-tetrazolium was added to each well, and culturing was performed in 5% carbon dioxide at 37° C. for 2 hours. After this incubation and using a microplate spectrophotometer (Synergy 2 multi-mode microplate reader (BioTek)), the absorbance of each well was measured at 490 nm. The value for cells not incubated with a test compound was designated as 100%. By comparing these values with the absorbance difference obtained at the well in which each test compound was added, the cell viability (% viability) after treatment with the test compound was calculated.

FLT3wt = FLT3wt (Homo sapiens (Human), UniProt P36888); test: ADP-Glo Kinase Assay, Flt3 wt; type: biochemical; details: 1 μM compound
Procedure, shortened: (§4)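 ADP-Glo luminescent ADP detection of human kinase activity in 5 mM MOPS pH 7.5, 5 mM MgCl2, 0.4 mM EDTA, 1.5 mM DTT. ATP at each kinase's apparent Km; compounds diluted to 1000 nM in assay buffer. Percent inhibition from normalised luminescence.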

Pim-1 = Pim-1 (Homo sapiens (Human), UniProt P11309); test: ADP-Glo Kinase Assay, Pim-1; type: biochemical; details: 1 μM compound
Procedure, shortened: as §4

MV4-11 cells = test: Growth inhibition, MTS assay, MV4-11; type: cell-based, Human; details: 72 hours, MTS cell viability; read-out: MV4-11 ED50
SW-480 cells = test: Growth inhibition, MTS assay, SW-480; type: cell-based, Human; details: 72 hours, MTS cell viability; read-out: SW-480 ED50
FLT3-ITD = test: ADP-Glo Kinase Assay, Flt3 ITD; type: biochemical, Human; details: 1 μM compound
Method: Compounds of the present invention were tested for their inhibitory activity against Pim-1, Pim-2, Pim-3, Flt3 wt, Flt3 ITD, CDK2/E and DYRK1. The testing of the compounds was carried out using the ADP-Glo™ Kinase Assay from Promega Corporation (Madison, Wis., USA).
The ADP-Glo™ Kinase Assay is a luminescent ADP detection assay to measure kinase activity by quantifying the amount of ADP produced during a kinase reaction. The kinase assay is performed in kinase assay buffer (5 mM MOPS, pH 7.5, 5 mM MgCl2, 0.4 mM EDTA, 1.5 mM DTT). Test samples initially dissolved in DMSO at 10 mM were diluted with the assay buffer to 1000 nM. A 30 μL volume/well of a mixture of substrates containing ATP (final ATP concentration in each kinase assay was equal to its apparent ATP Km).
The assay was performed in two steps: first, after the kinase reaction, an equal volume of ADP-Glo™ Reagent was added to terminate the kinase reaction and deplete the remaining ATP. Second, the Kinase Detection Reagent was added to simultaneously convert ADP to ATP and allowed the newly synthesized ATP to be measured using a luciferase/luciferin reaction. The luminescent signal generated was proportional to the ADP concentration produced and was correlated with kinase activity. A microplate spectrophotometer (Synergy 2 multi-mode microplate reader [BioTek]) was used for detecting the luminescence. The data was normalized and the percent of inhibition was obtained according to the following equation: […]

Pim-2 = Pim-2 (Homo sapiens (Human), UniProt Q9P1W9); test: ADP-Glo Kinase Assay, Pim-2; type: biochemical; details: 1 μM compound
Procedure, shortened: as §4

CDK2/E = CDK2/E (Homo sapiens (Human), UniProt P24941); test: ADP-Glo Kinase Assay, CDK2/E; type: biochemical; details: 1 μM compound
Procedure, shortened: as §4

HepG2 cells = test: Growth inhibition, MTS assay, HepG2; type: cell-based, Human; details: 72 hours, MTS cell viability; read-out: HepG2 ED50
DYRK1 = DYRK1 (Homo sapiens (Human), UniProt Q13627); test: ADP-Glo Kinase Assay, DYRK1; type: biochemical; details: 1 μM compound
Procedure, shortened: as §4

HEL92 cells = test: Growth inhibition, MTS assay, HEL92; type: cell-based, Human; details: 72 hours, MTS cell viability; read-out: HEL92 ED50
Jeko-1 cells = test: Growth inhibition, MTS assay, Jeko-1; type: cell-based, Human; details: 72 hours, MTS cell viability; read-out: Jeko-1 ED50
KG-1 cells = test: Growth inhibition, MTS assay, KG-1; type: cell-based, Human; details: 72 hours, MTS cell viability
From the text: as §1, §2, §3

MOLM16 cells = test: Growth inhibition, MTS assay, MOLM16; type: cell-based, Human; details: 72 hours, MTS cell viability; read-out: MOLM 16 ED50
MV4-11 xenograft = MV4-11 xenograft in immunocompromised mice; type: in vivo; details: MV4-11 xenograft, oral
From the text: Several compounds of the present invention have been studied in a xenograft in mice, an in vivo tumor transplantation model used to investigate the factors involved in malignant transformation, invasion and metastasis, as well as to examine response to therapy. For the purpose of acceptance of donor leukemic cells (MV4-11 or MOLM16 cells), immunocompromised mice were used, namely particularly severely compromised immunodeficient mice (NOD/scid, SCID/beige). When tumors developed size of approx. 50-200 mm^3, the compounds as indicated below in Tables 3 and 3a were administered orally every day for 2-3 weeks, in once a day (QD) or twice a day (BID) schedule. During the course of the experiment, the mice were monitored and the following two parameters were measured: the tumor growth inhibition (TGI) factor as a measure of therapeutic efficacy and the body weight change (ΔBW) factor as a measure of possible compound toxicity. The results are depicted in Tables 3 and 3a.
Next, compound 26A was evaluated in a xenograft study of acute myeloid leukemia (MV-4-11), alone or in a combinational treatment with Cytarabine in vivo (Table 3b; FIG. 6). Compound 26A was tested in two doses (50 and 25 mg/kg) and administered twice a day (BID); Cytarabine was administered at dose of 50 mg/kg three times in a week (TIW). During 15 days of compound administration dose-dependent anti-cancer activity of compound 26A (administered alone) was shown. Tumor growth inhibition reached −82% and −77%, respectively.

Pim-3 = Pim-3 (Homo sapiens (Human), UniProt Q86V86); test: ADP-Glo Kinase Assay, Pim-3; type: biochemical; details: 1 μM compound
Procedure, shortened: as §4

Pim-1, sequence (P11309 whole entry): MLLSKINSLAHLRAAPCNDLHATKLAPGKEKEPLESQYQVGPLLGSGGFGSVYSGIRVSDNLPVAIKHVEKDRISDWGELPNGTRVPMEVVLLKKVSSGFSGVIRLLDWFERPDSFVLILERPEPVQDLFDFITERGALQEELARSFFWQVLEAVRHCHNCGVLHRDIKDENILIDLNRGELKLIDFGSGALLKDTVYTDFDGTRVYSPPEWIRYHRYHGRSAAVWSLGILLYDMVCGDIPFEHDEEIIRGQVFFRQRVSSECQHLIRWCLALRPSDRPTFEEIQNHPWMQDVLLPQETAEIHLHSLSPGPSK
Pim-2, sequence (Q9P1W9 whole entry): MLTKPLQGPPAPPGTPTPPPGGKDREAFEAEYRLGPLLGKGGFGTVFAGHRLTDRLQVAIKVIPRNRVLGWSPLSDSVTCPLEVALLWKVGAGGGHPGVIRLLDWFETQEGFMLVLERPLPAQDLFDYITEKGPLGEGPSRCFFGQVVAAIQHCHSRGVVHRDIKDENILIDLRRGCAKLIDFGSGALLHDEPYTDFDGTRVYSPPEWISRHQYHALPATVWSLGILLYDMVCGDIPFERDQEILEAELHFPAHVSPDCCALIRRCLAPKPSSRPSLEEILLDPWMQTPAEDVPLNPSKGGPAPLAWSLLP
FLT3wt, sequence (P36888 27-993): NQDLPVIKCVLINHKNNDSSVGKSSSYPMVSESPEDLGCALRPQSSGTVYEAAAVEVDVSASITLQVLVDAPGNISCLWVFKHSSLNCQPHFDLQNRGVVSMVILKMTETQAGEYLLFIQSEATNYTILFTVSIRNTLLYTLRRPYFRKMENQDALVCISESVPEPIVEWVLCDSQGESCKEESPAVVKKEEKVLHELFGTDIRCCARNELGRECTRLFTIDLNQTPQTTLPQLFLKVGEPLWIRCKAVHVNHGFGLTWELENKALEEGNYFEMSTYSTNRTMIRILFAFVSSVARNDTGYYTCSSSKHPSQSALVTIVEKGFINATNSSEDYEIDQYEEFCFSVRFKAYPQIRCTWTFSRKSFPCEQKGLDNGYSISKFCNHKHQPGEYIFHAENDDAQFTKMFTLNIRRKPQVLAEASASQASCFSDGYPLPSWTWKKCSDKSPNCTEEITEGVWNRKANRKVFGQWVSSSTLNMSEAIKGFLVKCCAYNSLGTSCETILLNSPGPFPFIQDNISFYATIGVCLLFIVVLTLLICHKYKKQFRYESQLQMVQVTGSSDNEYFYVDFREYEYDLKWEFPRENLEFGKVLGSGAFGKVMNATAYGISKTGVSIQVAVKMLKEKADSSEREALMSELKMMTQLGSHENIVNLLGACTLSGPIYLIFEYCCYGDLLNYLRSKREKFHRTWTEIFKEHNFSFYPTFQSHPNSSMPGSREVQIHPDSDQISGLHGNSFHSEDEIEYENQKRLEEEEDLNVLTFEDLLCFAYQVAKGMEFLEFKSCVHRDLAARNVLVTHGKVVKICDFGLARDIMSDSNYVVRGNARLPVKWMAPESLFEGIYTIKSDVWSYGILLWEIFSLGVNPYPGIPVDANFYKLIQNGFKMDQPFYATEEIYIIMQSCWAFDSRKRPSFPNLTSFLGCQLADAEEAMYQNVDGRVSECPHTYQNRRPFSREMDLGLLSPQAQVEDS

IC50 (MOLM13 cells): 1.8 µM | Flt3wt % INH (1 μM) (FLT3wt): 9% | Pim-1 % INH (1 μM) (Pim-1): >95% | IC50 (MV4-11 cells): 0.6 µM | IC50 (SW-480 cells): 7.0 µM | Flt3ITD % INH (1 μM) (FLT3-ITD): 29% | Pim-2 % INH (1 μM) (Pim-2): 55% | CDK2/E % INH (1 μM) (CDK2/E): 6% | IC50 (HepG2 cells): 2.2 µM | DYRK1A % INH (1 μM) (DYRK1): 39% | IC50 (MOLM16 cells): 0.2 µM | Pim-3 % INH (1 μM) (Pim-3): >95%
Structure (SMILES): CCn1c(N2CCC[C@H](N)C2)nc2c([N+](=O)[O-])c(Br)c(Br)cc21 [Example 1AH]
IC50 (HEL92 cells): 6.0 µM | IC50 (Jeko-1 cells): 1.9 µM | KG-1 ED50 (KG-1 cells): 0.65 µM | TGI (tumor growth inhibition) (MV4-11 xenograft; 150 mg/Kg QD): 74% | ΔBW (body weight change) (MV4-11 xenograft; 150 mg/Kg QD): 0.6% | TGI (tumor growth inhibition) (MV4-11 xenograft; doses as in Table 3): more than 70%
